Data as given in patent US20100008976A1, “Medical Use of N-Phenylpropenoyl-Amino Acid Derivatives and Related Compounds” (Westfallsche Wilheims Universitat Munster, priority 2006, published 2010).

Experiments:
[1] = test system: human liver cells (HEPG2); test: MTT cell metabolic (mitochondrial) activity in HepG2 liver cells; assay type: cell-based; conditions: for mitochondrial activity: HepG2, 10 and 100 μg/ml, incubation for 48 hours, MTT; for energy status: HepG2, shortened incubation time of 24 hours
Protocol: (§1) The HepG2 cell line, clone H20, was received from Prof. Mersch-Sundermann, Giessen University, and cultured as described in [2]. The cells were cultured in low glucose (1 g/l) Dulbecco's modified Eagle's medium (DMEM) with L-glutamine and 25 mM Hepes, which was mixed with 15% (v/v) heat-inactivated fetal calf serum (FCS) and gentamycin (30 μg/ml), in a moist atmosphere at 37+/−0.5° C., 5% CO2. The cells were trypsinized, washed with PBS (pH 7.4), gently centrifuged and then a cell suspension in a cell medium was prepared by forcing the sediment through a needle. The medium was changed every three to five days. The compounds Nos. 5 and 8 to be tested were dissolved in a concentration of 1 mg/ml in HepG2 medium, to which the serum-free supplement SerEx was added instead of FCS, and filtered through a 0.2 μm cellulose acetate filter.
The cells were seeded in 96-well microtiter plates (1×10^4 cells/well). […] The cell metabolic activity was quantified as 2.5 mg/ml MTT in accordance with. The extracytosolic LDH [4] was quantified with a cytotoxicity assay.
FIG. 2: Influence of compounds No. 5 and No. 8 (10 and 100 μg/ml) on the mitochondrial activity of human liver cells (HEPG2) after incubation for 48 hours.
The measurement plotted in FIG. 2 is the relative mitochondrial dehydrogenase activity (untreated control=100%). The bars represent the means of a representative experiment with n=10.

[2] = test system: Human primary keratinocytes (NHK); test: LDH assay for necrotic effects in human keratinocytes; assay type: cell-based
Protocol: (§2) Human primary keratinocytes (NHK) were isolated from human skin obtained by surgical resection of Caucasian patients. In vitro tests relating to the mitochondrial activity, the BrdU incorporation and for necrotic effects by means of an LDH assay were carried out.
(§3) The investigations were carried out with cells of the 2nd to 6th passage. Both compound No. 5 and compound No. 8 increased in a concentration of 10 μg/ml both the mitochondrial activity and the proliferation (FIG. 3).

[3] = test system: Helicobacter pylori; test: Adhesion of FITC-labeled Helicobacter pylori to human gastric mucosa; assay type: cell-based; conditions: for adhesion score / fluorescence intensity: FITC-labeled H. pylori on human gastric mucosa; for adhesion score: 1 mg/ml; for antiadhesive effect on Helicobacter pylori: bacteria incubated with compound 1 mg/ml, stomach tissue; for fluorescence intensity: untreated bacteria standardized to 100%
Protocol: Adhesion tests were carried out in accordance with. This entailed FITC-labeled bacteria being incubated with the compounds to be tested (1 mg/ml). Deparaffinized pieces of stomach tissue were incubated with the bacteria. Microorganisms which adhere to the epithelium were counted under a fluorescence microscope and compared with an untreated control.
The maximum adhesion, as found for example in the untreated control groups (negative control), was assigned a score of +++++, while lower adhesions were assigned scores ++++, +++, ++, + or −, the score found for the positive control (sialyllactose, [7]) being −.
FIG. 4: Fluorescence microscopes (200×) of a representative in situ experiment with FITC-labeled H. pylorion human gastric mucosa: (A) complete adhesion (+++++) of untreated bacteria, fluorescence intensity standardized to 100% (negative control), (B) positive control (−), fluorescence intensity 10% (C) compound No. 5 (++++), fluorescence intensity 78%, (D) compound No. 8 (+) fluorescence intensity 19%.

[4] = test system: HepG2 cell line; test: Extracytosolic LDH cytotoxicity assay in HepG2 cells; assay type: cell-based, human; conditions: HepG2, 100 and 10 μg/ml
Protocol: as §1
The cells were seeded in 96-well microtiter plates (1×10^4 cells/well). After 24 h, the medium was removed and the cells were exposed to the compounds to be tested, in concentrations of 100 and 10 μg/ml, for 48 h. The cell metabolic activity was quantified as 2.5 mg/ml MTT in accordance with. The extracytosolic LDH [4] was quantified with a cytotoxicity assay.

[5] = test system: Human primary keratinocytes (NHK); test: MTT mitochondrial activity in human keratinocytes; assay type: cell-based; conditions: 10 μg/ml
Protocol: as §2, §3
(§4) FIG. 3: Influence of compounds No. 5 and No. 8 (10 μg/ml) on the mitochondrial activity (A) and the mitotic proliferation (B) of HaCaT keratinocytes after incubation for 60 hours.
(§5) The measurement plotted in FIG. 3A is the relative mitochondrial dehydrogenase activity (untreated control=100%) and in FIG. 3 b is the relative mitochondrial proliferation rate (untreated control=100%).
(§6) The mitochondrial activity was investigated using the MTT assay, and the proliferation by BrdU-incorporation ELISA. The bars represent the standard errors with n=10. Negative control: untreated cells, positive control: fibroblast growth factor FGF.

[6] = test system: Human primary keratinocytes (NHK); test: BrdU incorporation proliferation in human keratinocytes; assay type: cell-based; conditions: 10 μg/ml
Protocol: as §2, §3, §4, §5, §6

Question: Which mitochondrial activity [1] does the source give for `O=C(O)C[C@H](NC(=O)/C=C/c1ccc(O)c(O)c1)C(=O)O` [Compound 8, (+)-N-[3′,4′-dihydroxy-(E)-cinnamoyl]-L-aspartic acid] here?
Answer: increased

Question: What about the energy status [1] of the same compound?
Answer: significantly increased

Question: What about the cytotoxicity [2] of the same compound?
Answer: No cytotoxicity was detected

Question: What about the adhesion score [3] of the same compound?
Answer: +

Question: What about the “antiadhesive effect on Helicobacter pylori” value [3] of the same compound?
Answer: almost complete suppression of adhesion

Question: What about the fluorescence intensity [3] of the same compound?
Answer: 19%

Question: What about the “necrotic cytotoxicity (LDH)” value [4] of the same compound?
Answer: no necrotic cytotoxicity was detectable

Question: What about the mitochondrial activity [5] of the same compound?
Answer: increased

Question: And the proliferation [6]?
Answer: increased

Question: How did the mitochondrial activity [1] turn out when `O=C(/C=C/c1ccc(O)c(O)c1)N[C@@H](Cc1ccc(O)c(O)c1)C(=O)O` [Compound 11, (−)-N-[3′,4′-dihydroxy-(E)-cinnamoyl]-3-hydroxy-L-tyrosine] was run?
Answer: none of the effects described

Question: And the “antiadhesive effect on Helicobacter pylori” value [3]?
Answer: none of the effects described

Question: What about the mitochondrial activity [5] of the same compound?
Answer: none of the effects described

Question: And the proliferation [6]?
Answer: none of the effects described

Question: What does the source list for `O=C(/C=C/c1ccc(O)c(O)c1)N[C@@H](Cc1c[nH]c2ccccc12)C(=O)O` [Compound 5, (+)-N-[3′,4′-dihydroxy-(E)-cinnamoyl]-L-tryptophan]?
Answer: mitochondrial activity [1]: increased; energy status [1]: no effect; cytotoxicity [2]: No cytotoxicity was detected; adhesion score [3]: ++++; antiadhesive effect on Helicobacter pylori [3]: no effect; fluorescence intensity [3]: 78%; necrotic cytotoxicity (LDH) [4]: no necrotic cytotoxicity was detectable; mitochondrial activity [5]: increased; proliferation [6]: increased

Question: With sialyllactose [reference compound] as the compound, how does the adhesion score [3] read?
Answer: −

Question: And the fluorescence intensity [3]?
Answer: 10%
